Measured values taken from PMC4136845, “Evaluation of Antimalarial Activity and Toxicity of a New Primaquine Prodrug” (PLoS ONE, 2014).
Values joined by “and” are separate entries in the source; they are usually repeats but may differ in a detail not shown here. Identical values can stand only once. “Also recorded” adds a separate entry of the source. Marks after values point to notes of the source that are not given here.

How the values were obtained:
[1] = Partition coefficient (log P) by HPLC method, OECD guideline
Protocol: A Waters Alliance HPLC system equipped with a UV-Vis 2487 detector was employed. The chromatographic analysis was performed on a Symmetry C18 HPLC column (4.6 mm×250 mm, 5 µm particle size) and the mobile phase was methanol:water (70∶30), with detection at 256 nm. A flow rate of 1.0 mL/min was used and 50-µL samples were injected into the chromatographic system. The run time was approximately 15 min. The analytical curve was constructed on the basis of the retention time of the standards (purchased from Sigma Aldrich, NJ, USA) butanone, acetanilide, phenol, phenacetin, benzene, toluene, chlorobenzene and thymol, dissolved in mobile phase at a concentration of 50 µg/mL. The substances were analyzed in triplicate and the average retention time for each standard was used. The capacity factor (k) was obtained by the equation [20]: k = (tR - t0) /t0, where tR is the retention time of the test substance and t0 the dead-time. The log k values were correlated with the partition coefficients of the standards for construction of the analytical curve. […] The coefficient of determination (r^2) was also calculated to evaluate the linearity of the analytical curve.

P. gallinaceum = assay: Inhibition of P. gallinaceum sporogony in Aedes fluviatilis mosquitoes fed on infected, treated chickens; assay type: in vivo; conditions: for Mean oocyts ±SD/ in times 4 h: chicken, mosquitoes fed 4 h after treatment; for Reduction in oocyst number, % / Sporogony inhibition, %: 4 h vs 0 h
Protocol: One-week-old chicks (Gallus gallus domesticus) previously inoculated with 10^6 RBC infected with P. gallinaceum, had their parasitemia monitoried daily, by examining Giemsa-stained thin blood smears; they were used to feed the mosquitoes when reaching 2.8 – 3.8%. The A. fluviatilis mosquitoes were kept for 24 h without sugar in their diet, to improve their ability to take the blood meal from chickens. For each compound the same infected chicken was offered twice to feed clean mosquitoes (30 female mosquitoes per group), before treatment, (group 0 h). Drug treatment was immediately performed by gavage and the treated chicken was offered again to blood-feed another group of mosquitoes (test group) 4 h after treatment of the chicken with the drug. […] In each experiment, another non-treated P. gallinaceum-infected chick was used twice (time 0 h and 4 h later) to feed clean mosquitoes, serving as an internal control.
Seven days after the blood meal, the mosquitoes were dissected and their midgut was removed under a stereomicroscope (100x), stained with 0.5% mercurochrome, and examined under a light microscope (40x) for the oocyst count. […] Two criteria were used to evaluate drug activity: the total number of infected mosquitoes and the mean number of oocysts, based on the examination of 20 mosquitoes in each group.

[2] = test system: monkey kidney cell line (BGM); assay: In vitro cytotoxicity, MTT assay, BGM cells; conditions: for MDL50 (Mean±SD) BGM: 24 h incubation
Protocol: (§1) The HepG2 (ATCC HB-8065) was originally received from the New University of Lisbon, Portugal, and BGM received as a gift from the Federal University of Minas Gerais and originally purchased from Rio de Janeiro Cell Bank (BCRJ 0049). When confluent, the cells were washed with RPMI culture medium, then trypsinized, distributed in a flat-bottom 96-well plate (5×10^3 cells/well), and incubated for 18 h at 37°C for cell adherence as described elsewhere. The compound (20 µL) was added to each well at various concentrations (1-1000 µg/mL) and the plate incubated for 24 h in a 5% CO2 atmosphere at 37°C. MTT [3-(4,5-dimethylthiazol-2-yl)-2,5-diphenyltetrazolium bromide] (5 mg/mL; 20 µL/well) was added to evaluate mitochondrial viability, and the plates were incubated again for 3 h, under the same culture conditions. The supernatant was carefully removed, and 100 µL of DMSO were added with mixing to dissolve the formazan crystals formed. The optical density was determined at 570 and 630 nm (background) (SpectraMax 340PC 384, Molecular Devices). Cell viability was expressed as the percentage of the control absorbance of the untreated cells after subtracting the appropriate background. The minimum lethal dose for 50% of the cells (MLD50) was determined as previously described.

[3] = test system: human hepatoma cell line (HepG2); assay: In vitro cytotoxicity, MTT assay, HepG2 cells; conditions: for MDL50 (Mean±SD) HepG2: 24 h incubation
Protocol: as §1

male Wistar rats [4] = assay: Biochemical analysis of serum of rats treated with multiple doses; conditions: rat serum, gavage four times a day for 4 days, PQ diphosphate 2.44 mg/kg free base, Phe-Ala-PQ 9.00 mg/kg, mean
Protocol: (§2) The biochemical, hematological and histopathological analyses were carried out in male Wistar rats (weighing 200–250 g). They were housed in wire cages, five animals per cage, with free access to food and water. The study protocol was approved by The Research Ethics Committee of the School of Pharmaceutical Sciences, UNESP, Araraquara (process 06/2009). […] After treatment with the drugs, the animals were decapitated for collection of blood and samples of liver and kidneys (preserved in 10% formaldehyde).
(§3) In biochemical analysis, aspartate aminotransferase (AST), alanine aminotransferase (ALT), gamma-glutamyltransferase (GGT), bilirubin, creatinine and urea kits were purchased from LabTest Diagnostica SA (Lagoa Santa,Minas Gerais, Brazil). Alkaline phosphatase (ALP) was assayed by the conversion of p-nitrophenyl phosphate to p-nitrophenol in a kinetic reaction, measured with a spectrophotometer at 405 nm. To determine the level of methemoglobin in relation to oxyhemoglobin, we used the method described by Naoum and collaborators. The blood was hemolyzed and the hemoglobin stabilized in 60 mM phosphate buffer, pH 6.8. The levels of methemoglobin and oxyhemoglobin were determined by spectrophotometric absorption at 630 and 540 nm. The total and differential white blood cell (WBC) counts were performed using a Neubauer chamber and blood smears, respectively. The hematocrit was determined using conventional method by microcapillary centrifugation.

male Wistar rats [5] = assay: Hemogram of rats treated with multiple doses; conditions: gavage four times a day for 4 days, PQ 2.44 mg/kg free base, Phe-Ala-PQ 9.00 mg/kg, mean (CI 95)
Protocol: as §2, §3

male Wistar rats [6] = assay: Histopathological evaluation of rat liver and kidney; conditions: multiple doses; for Liver glycogen: PAS-positive cells (total), periportal region: compared to the control group; for Histopathological analysis of the kidney: hematoxylin/eosin
Protocol: as §2
The liver and kidney were removed from each rat to perform the histopathological evaluation. Tissue pieces were fixed in 10% formaldehyde and embedded in paraffin. Each organ was then cut into 4-µm thick sections and subjected to standard hematoxylin/eosin staining. Hepatic glycogen staining in sections was carried out using the standard periodic acid-Schiff (PAS) reaction, followed by hematoxylin counterstaining, and the periportal and centrilobular regions of the liver were analyzed according to Thoolen et al.. Five periportal regions and five centrilobular regions were photographed in each animal, for a total of 300 photographs, and these images were adjusted using Pixelmator software (2.2.1). Nuclear hepatocyte glycogen levels were classified as: A- PAS<50% of cells, B- PAS≥50% of cells and C- PAS-negative. Additionally, liver sections were examined for the occurrence of microvesicular fatty changes, as well as the kidney sections for inflammatory infiltration, reduction of Bowman's spaces and changes in renal tubules. Statistical analysis was performed in Graphpad Prism 5.0b. Data for each organ analysis were expressed qualitatively and quantitatively, and normal distribution was verified (D'Agostin and Person). t-tests and chi-square tests were performed, and non-parametric data were evaluated using the Mann-Whitney or Kruskal-Wallis test for pair wise comparisons of groups. The significance level was set at 5%.

in vitro = conditions: human
Protocol: (§4) The hemolytic rate was calculated using 0.05% saponin as the positive control for hemolysis of human RBC, which was considered 100% [24], [25]. The diagnosis of G6PD deficiency was performed using a technique based on the principle that hemoglobin oxidized to methemoglobin, by the action of sodium nitrite, is catalyzed by an enzyme, in the presence of methylene blue [26]. […] All participants signed a written informed consent before blood collection. The consent was approved by the Ethics Committee of CEPEM.

[7] = cited from earlier work
In vitro hemolysis assay = conditions: human
Protocol: as §4

[8] = previous study; cited from earlier work
[9] = test system: G6PD-deficient human red blood cells; assay: In vitro hemolysis assay
Protocol: as §4

[10] = single oral dose 1.0 mg/kg (Phe-Ala-PQ: 0.19 mg/kg PQ)
[11] = single oral dose 5.0 mg/kg (0.94 mg/kg PQ)
[12] = single oral dose 10 mg/kg (1.9 mg/kg PQ)
[13] = MTT, 24 h, expressed as PQ equivalents

COc1cc(NC(C)CCCN)c2ncccc2c1 (stereo not shown) [PQ, Primaquine]
chromatographic logP [1]: 2.1 | Mean oocyts ±SD/ in times 4 h (P. gallinaceum; [10]): 2.1 | Mean oocyts ±SD/ in times 4 h (P. gallinaceum; single oral dose 1.0 mg/kg (Phe-Ala-PQ: 0.19 mg/kg PQ), listed as PQ diphosphate): 2.1±4.3 | Reduction in oocyst number, % (P. gallinaceum; [10]): 96% | Sporogony inhibition, % (P. gallinaceum; [10]): 50% | MDL50 (Mean±SD) BGM ([2]; MTT): 263 µg/mL and 263 ± 4 µg/mL | MDL50 (Mean±SD) HepG2 ([3]; MTT): 180 µg/mL and 180 ± 24 µg/mL | ALP (male Wistar rats [4]): 125.6 U/L | ALT (male Wistar rats [4]): 91.81 ^a U/L | AST (male Wistar rats [4]): 64.99 ^a U/L | Creatinine (male Wistar rats [4]): 0.986 mg/dL and 0.986 ^a mg/dL | Direct bilirubin (male Wistar rats [4]): 0.228 mg/dL | GGT (male Wistar rats [4]): 22.88 ^a U/L | Total bilirubin (male Wistar rats [4]): 0.797 mg/dL and 0.797 ^a mg/dL | Urea (male Wistar rats [4]): 18.51 mg/dL | Eosinophils Absolute (No. cells) (male Wistar rats [5]): 97 (43–151) No. cells | Eosinophils Relative (%) (male Wistar rats [5]): 2.10 (0.77–3.42) % | Hematocrit (male Wistar rats [5]): 46 (44–48) % | Leukocytes (male Wistar rats [5]): 4840 (3973–5706) /mm^3 | Lymphocytes Absolute (No. cells) (male Wistar rats [5]): 4123 (3200–5046) No. cells | Lymphocytes Relative (%) (male Wistar rats [5]): 83.9 ^a (78.9–88.9) % | Methemoglobin (male Wistar rats [5]): 3.89 (3.39–4.40) % | Monocytes Absolute (No. cells) (male Wistar rats [5]): 96 ^a (52–140) No. cells | Monocytes Relative (%) (male Wistar rats [5]): 2.30 ^a (0.86–3.73) % | Neutrophils Band Absolute (No. cells) (male Wistar rats [5]): 6 (0–19) No. cells | Neutrophils Band Relative (%) (male Wistar rats [5]): 0.11 (0.00–0.36) % | Neutrophils Segmented Absolute (No. cells) (male Wistar rats [5]): 516 ^a (403–629) No. cells | Neutrophils Segmented Relative (%) (male Wistar rats [5]): 11.6 ^a (8.15–15.0) % | Liver glycogen: positive cells (<50%), periportal region (male Wistar rats [6]): decrease | Liver glycogen: PAS-positive cells (total), periportal region (male Wistar rats [6]): more PAS-positive cells (total) compared to the control group | Histopathological analysis of the kidney (male Wistar rats [6]): normal structures, with no alteration in the glomeruli and renal tubules | hemolysis at 31 µg/mL (in vitro): 0% | hemolysis at 62 µg/mL (in vitro): 0% | hemolysis at 1000 µg/mL (in vitro): 100% | plasma half-life [7]: ca. 6 h | hemolysis at 125 µg/mL (In vitro hemolysis assay): 0% | hemolysis at 250 µg/mL (In vitro hemolysis assay): 50% | hemolysis at 500 µg/mL (In vitro hemolysis assay): 87.8%

COc1cc(NC(C)CCCNC(=O)[C@H](C)NC(=O)[C@@H](N)Cc2ccccc2)c2ncccc2c1 (stereo partly drawn) [Phe-Ala-PQ, phenylalanine-alanine-primaquine]
log P ([1]; HPLC method): 0.94 | Mean oocyts ±SD/ in times 4 h (P. gallinaceum; [10]): 26±36 | Mean oocyts ±SD/ in times 4 h (P. gallinaceum; [11]): 6±6 | Mean oocyts ±SD/ in times 4 h (P. gallinaceum; [12]): 0±0 | Reduction in oocyst number, % (P. gallinaceum; [10]): 0% | Sporogony inhibition, % (P. gallinaceum; [10]): 0% | Reduction in oocyst number, % (P. gallinaceum; [11]): 70% | Reduction in oocyst number, % (P. gallinaceum; [12]): 100% | Sporogony inhibition, % (P. gallinaceum; [12]): 100% | MDL50 BGM, PQ equivalents [2, 13]: 110 µg/mL | MDL50 (Mean±SD) BGM ([2]; MTT): 580 µg/mL and 580 ± 86 µg/mL | Toxicity to BGM cells compared to PQ ([2]; ratio of MDL50 values): about two times less toxic | MDL50 HepG2, PQ equivalents [3, 13]: 175 µg/mL | MDL50 (Mean±SD) HepG2 ([3]; MTT): 920 µg/mL and 920 ± 1 µg/mL | Toxicity to HepG2 cells compared to PQ ([3]; ratio of MDL50 values): five times less toxic | ALP (male Wistar rats [4]): 93.52 U/L | ALT (male Wistar rats [4]): 185.7 ^a, ^b U/L | AST (male Wistar rats [4]): 290.6^a, ^b U/L | Creatinine (male Wistar rats [4]): 0.529 mg/dL | Direct bilirubin (male Wistar rats [4]): 0.147 mg/dL | GGT (male Wistar rats [4]): 13.03^a, ^b U/L | Total bilirubin (male Wistar rats [4]): 0.711 mg/dL | Urea (male Wistar rats [4]): 5.734^a, ^b mg/dL | Urea (male Wistar rats [4]; listed as prodrug): 5.734 mg/dL | Eosinophils Absolute (No. cells) (male Wistar rats [5]): 40 (0–152) No. cells | Eosinophils Relative (%) (male Wistar rats [5]): 0.40 (0.00–1.51) % | Hematocrit (male Wistar rats [5]): 47 (45–48) % | Hemoglobin (male Wistar rats [5]): 11.76 (11.38–12.14) | Leukocytes (male Wistar rats [5]): 8700 ^a ^, ^b (5623–11777) /mm^3 | Lymphocytes Absolute (No. cells) (male Wistar rats [5]): 7691 ^a ^, ^b (5947–9976) No. cells | Lymphocytes Relative (%) (male Wistar rats [5]): 83.0 ^a (75.8–90.2) % | Methemoglobin (male Wistar rats [5]): 3.65 (3.45–3.85) % | Monocytes Absolute (No. cells) (male Wistar rats [5]): 812 ^b (0–1728) No. cells | Monocytes Relative (%) (male Wistar rats [5]): 7.60 ^b (0.06–15.1) % | Neutrophils Band Absolute (No. cells) (male Wistar rats [5]): 0 No. cells | Neutrophils Band Relative (%) (male Wistar rats [5]): 0% | Neutrophils Segmented Absolute (No. cells) (male Wistar rats [5]): 895 (163–1626) No. cells | Neutrophils Segmented Relative (%) (male Wistar rats [5]): 9.00 ^a (2.55–15.4) % | Liver glycogen: positive cells (<50%), periportal region (male Wistar rats [6]): increase | Liver glycogen: PAS-positive cells (>50%), overall analysis of the liver (male Wistar rats [6]; compared to control group): more PAS-positive cells (>50%) | Liver cells with fatty microvesicular changes (male Wistar rats [6]; compared to the PQ group, listed as prodrug): fewer cells with fatty microvesicular changes; also recorded: lower percentage of cells with fatty microvesicular changes | Liver glycogen: PAS-positive cells (total), periportal region (male Wistar rats [6]): more PAS-positive cells (total) compared to the control group | Histopathological analysis of the kidney (male Wistar rats [6]): normal structures, with no alteration in the glomeruli and renal tubules | oral bioavailability [8]: approximately 50% | Hemolysis % ([9]; 125 µg/mL (Phe-Ala-PQ: 23.7 µg/mL PQ equivalents)): 0% | Hemolysis % ([9]; 500 µg/mL (Phe-Ala-PQ: 95 µg/mL PQ equivalents)): 51% | Hemolysis ([9]; concentrations equal to or less than 250 µg/mL (47.5 µg/mL PQ equivalents)): did not cause hemolysis
